Entries after “also recorded” stand apart in the source; their conditions may differ. Read-outs that look alike come from different tables or passages of the source.

What is called IC50 is the concentration that gives 50% inhibition. Low readings indicate greater potency in that assay, high ones weaker potency in that assay.

One series concerns kinases. The following applies: beside BCR-ABL and SRC; cited from earlier work.
The subject of series [1] is peritoneal metastasis of GC. The following applies: xenograft mouse model; oral and intraperitoneal administration; cited from earlier work.
For series [2], the system named is GC cell lines (AGP-01, ACP-02, ACP-03). Nature of the series: Growth inhibition assay, all GC cell lines. Type of series: cell-based, human. On the procedure: All cell lines were cultured in Dulbecco’s Modified Eagle Medium, high Glucose (4.5 g/L), with Sodium Pyruvate and L-glutamin] (DMEM, Lonza, UK), containing 10% foetal bovine serum (FBS) (Invitrogen, USA), 1% antibiotic with 100 IU/ml Penicillin and 100 ug/ml Streptomycin (Invitrogen, USA). The culture medium was changed 2 to 3 times a week and cells were passaged using trypsin/EDTA (Invitrogen, USA).
Resarzurin was used for growth inhibition assays. Briefly, cells (300/well) were plated in 384-well flat-bottomed plates and cultured for 24 h. […] All the following in vitro experiments were performed on metastatic AGP-01 cells.

The subject of series [3] is AGP-01 cells. Briefly: Morphological analysis. Type of series: cell-based, human. To be noted: 100 nM, 500 nM, 1 μM, 24 h.
Series [4] deals with AGP-01 cells. Nature of the series: Growth inhibition assay (resazurin). The following applies: 2D culture, 72 h, value (± SD).
Another series has as its system kinase targets. To be noted: cited from earlier work.
In series [5] the test system is AGP-01 cells. Nature of the series: Microfilament analysis (cortical actin, confocal). Format: cell-based, human.
Protocol: Between each step described above, cells were washed three times with PBS for 5 min at 37°C. […] Images were capture by a laser confocal microscope at 40× (Zeiss, Germany). Image analysis of actin fibers was performed using Acapella (Perkin Elmer). Nuclei were automatically segmented using DAPI channel. Cells were segmented using both DAPI and Actin channels. Dense actin was defined by thresholding to find pixels that were much brighter than their surrounding in the membrane region. The area of dense actin in the membrane region was calculated and normalized to the cell area. Similarly the actin intensity in the membrane region was measured and normalized to the cell area.
A further series has as its system ACP-02 cells. Briefly: Growth inhibition assay (resazurin). Format: cell-based, human. To be noted: 2D culture, 72 h, value (± SD). In general terms: Alamar Blue is a resazurin reagent that responds to reducing activity.
Series [6] has as its system AGP-01 cells. Briefly: Cell invasion assay (ECM coated inserts). Type of series: cell-based, human. The following applies: 100 nM, 500 nM, 1 μM, 24 h, legend 8 h. Here is the method:
Cell migration assays were performed using an IncuCyte® life-cell analysis system (Essen Bioscience, USA). […] Images were captured every 2 h for 48 h and evaluated using the InCucyte® software where the wound width was calculated and expressed as percent relative to the control (0.1% DMSO). Cell invasion was assessed by using the cell invasion assay. A 24-well tissue culture plate (Corning) with cell culture inserts which contained an 8 μm pore size polycarbonate membrane was used. […] After 8 h incubation, cells were removed from the inner surface of the insert using a cotton-tipped swab. […] The number of migrating cells per insert was captured by the Operetta System (Perkin Elmer) and counted automatically.

The test system of the next series is ACP-03 cells. Briefly: Growth inhibition assay (resazurin). Type of series: cell-based, human. The following applies: 2D culture, 72 h, value (± SD).
The next series concerns GC patients. To be noted: cited from earlier work; for beneficial effects in clinical trials: NCT00215995, NCT00595985, NCT00725712.

For the molecule `Cc1nc(Nc2ncc(C(=O)Nc3c(C)cccc3Cl)s2)cc(N2CCN(CCO)CC2)n1` [Dasatinib], the “number of additional kinases identified as targets” value in the series with kinases was roughly 40. Further, the “peritoneal metastasis of GC” value in [1] is reported as “suppressing peritoneal metastasis of GC”. Further, the IC50 in series [2] (72 h incubation) turned out to be 1 µM; in the series with AGP-01 cells [4] it was 0.35 µM; in the series on ACP-02 cells (Homo sapiens), 1.02 µM. Also, in the series on AGP-01 cells [3], the “morphology of the cells” value is given as “morphological changes”. The “number of targets identified” value with kinase targets is 72. Besides, the “cortical actin in the membrane region” value with AGP-01 cells [5] (confocal imaging, 100 nM, 500 nM, 1 μM, 24 h) is listed as “significant increase”. The “area of cortical actin” value in the series on AGP-01 cells [5] (single cells, p-value < 0.01) is “significantly higher”. Moreover, the “intensity of cortical actin” value in the series with AGP-01 cells [5] (single cells, p-value < 0.01) is “significantly higher”. The cell invasion entry in the series on AGP-01 cells [6] was “significantly inhibited; also recorded: Inhibition of cell invasion and migration”.

As for `CO[C@H]1C[C@@H]2CC[C@@H](C)[C@@](O)(O2)C(=O)C(=O)N2CCCC[C@H]2C(=O)O[C@H]([C@H](C)C[C@@H]2CC[C@@H](OCCO)[C@H](OC)C2)CC(=O)[C@H](C)/C=C(\C)[C@@H](O)[C@@H](OC)C(=O)[C@H](C)C[C@H](C)/C=C/C=C/C=C/1C` [Everolimus], the 50% inhibitory concentration (IC50) in the series on AGP-01 cells [4], in the series with ACP-02 cells (Homo sapiens) and with ACP-03 cells (Homo sapiens) was greater than 20 µM in each case.

Turning to `COc1cc2c(Oc3ccc(NC(=O)C4(C(=O)Nc5ccc(F)cc5)CC4)cc3F)ccnc2cc1OCCCN1CCOCC1` [GSK1363089], the “beneficial effects in clinical trials” value in the series with GC patients is given as “failed to show beneficial effects”.

For `C=CCN(/C=C1/C(=O)O[C@H](COC)[C@@]2(C)C1=C(O)C(=O)C1=C2[C@H](OC(C)=O)C[C@]2(C)C(=O)CC[C@@H]12)CC=C` [PX-866], the IC50 in the series on AGP-01 cells [4], in the series with ACP-02 cells and in the series with ACP-03 cells was greater than 20 µM throughout.

`Cc1ccc(Nc2nccc(N(C)c3ccc4c(C)n(C)nc4c3)n2)cc1S(N)(=O)=O` [Pazopanib]: the concentration for half-maximal inhibition (IC50) in the series with AGP-01 cells [4], in the series on ACP-02 cells (Homo sapiens) and in the series with ACP-03 cells (Homo sapiens) was greater than 20 µM in each case.

Take `CC[C@@H]1/C=C(\C)C[C@H](C)C[C@H](OC)[C@H]2O[C@@](O)(C(=O)C(=O)N3CCCC[C@H]3C(=O)O[C@H](/C(C)=C/[C@@H]3CC[C@H](Cl)[C@H](OC)C3)[C@H](C)[C@@H](O)CC1=O)[C@H](C)C[C@@H]2OC` [Pimecrolimus]: the IC50 in the series on AGP-01 cells [4], with ACP-02 cells (Homo sapiens) and in the series with ACP-03 cells (Homo sapiens) was greater than 20 µM each time.

`N#CC[C@H](C1CCCC1)n1cc(-c2ncnc3[nH]ccc23)cn1` [Ruxolitinib]: the IC50 in the series on AGP-01 cells [4], in the series with ACP-02 cells (Homo sapiens) and in the series on ACP-03 cells (Homo sapiens) was greater than 20 µM each time.

With `CN1CCN(CCOc2cc(OC3CCOCC3)c3c(Nc4c(Cl)ccc5c4OCO5)ncnc3c2)CC1` [Saracatinib], the IC50 in the series on AGP-01 cells [4] amounted to 2.38 µM; with ACP-02 cells (Homo sapiens), 5.94 µM; with ACP-03 cells (Homo sapiens) it was 2.8 µM.

Regarding `CCN(CC)CCNC(=O)c1c(C)[nH]c(/C=C2\C(=O)Nc3ccc(F)cc32)c1C` [Sunitinib], the values for the IC50 in the series on AGP-01 cells [4] and in the series on ACP-03 cells (Homo sapiens) were 1.53 µM and 1.97 µM, respectively. Besides, the “beneficial effects in clinical trials” value in the series with GC patients was “failed to show beneficial effects”.

Consider `COc1cc2nccc(Oc3ccc(NC(=O)Nc4cc(C)on4)c(Cl)c3)c2cc1OC` [Tivozanib], for which the concentration for half-maximal inhibition (IC50) in the series on AGP-01 cells [4], in the series with ACP-02 cells (Homo sapiens) and with ACP-03 cells (Homo sapiens) was greater than 20 µM throughout.

Turning to `COc1cc2c(Nc3ccc(Br)cc3F)ncnc2cc1OCC1CCN(C)CC1` [Vandetanib], the IC50 in the series on AGP-01 cells [4], in the series with ACP-02 cells (Homo sapiens) and in the series with ACP-03 cells (Homo sapiens) was greater than 20 µM in each case.

Turning to `CCCS(=O)(=O)Nc1ccc(F)c(C(=O)c2c[nH]c3ncc(-c4ccc(Cl)cc4)cc23)c1F` [Vemurafenib], the IC50 in the series on AGP-01 cells [4], in the series with ACP-02 cells (Homo sapiens) and with ACP-03 cells (Homo sapiens) was greater than 20 µM throughout.

On to `N#CC1(c2ccc(NC(=O)c3cccnc3NCc3ccncc3)cc2)CCCC1` [apatinib], for which the “median OS and progression free survival” value with GC patients (third line therapy for GC) is given as “significant benefit”.

`Cc1ccc(NC(=O)c2ccc(CN3CCN(C)CC3)cc2)cc1Nc1nccc(-c2cccnc2)n1` [imatinib]: the antiproliferative effect entry in series [2] was “no proliferation inhibition was observed”.

For `CS(=O)(=O)CCNCc1ccc(-c2ccc3ncnc(Nc4ccc(OCc5cccc(F)c5)c(Cl)c4)c3c2)o1` [lapatinib], the “beneficial effects in clinical trials” value with GC patients is reported as “failed to show beneficial effects”.

`Cc1cn(-c2cc(NC(=O)c3ccc(C)c(Nc4nccc(-c5cccnc5)n4)c3)cc(C(F)(F)F)c2)cn1` [nilotinib]: the antiproliferative effect result in series [2] (GC cell lines, 72 h incubation) is listed as “no proliferation inhibition was observed”.

Turning to “ramucirumab: VEGFR2 inhibitor approved as second line treatment of GC”, the “median OS” value with GC patients (second line, alone or with paclitaxel, local relapsed or metastatic GC) was “improvement on median OS”.
